Results: patent publication US20210346315A1, “COMPOSITION FOR INHIBITION OR TREATMENT OF BRAIN TUMORS OR SYMPTOMS ATTRIBUTABLE THERETO” (ENEOS Corporation, priority 2018, published 2021)

Columns and labels:
[1] = system: mouse-derived glioma cell line GL261; experiment: Cell proliferative capacity / cell viability of mouse-derived glioma cell line GL261 (CCK-8); type: cell-based; details: for average value of cell viability, concentration dependence: 0.1 to 10 μM; for cell viability (proliferation) vs the control group: GL261, after 96 hours, 0.1, 1.0, 5 or 10 μM
Protocol: (§1) As the glioma cell lines, the mouse-derived glioma cell line GL261 (transferred from Graduate School of Health Sciences, Gunma University) and the human-derived glioma cell line U251MG (DS Pharma Biomedical Co., Ltd.) were used. First, the glioma cell lines were seeded in a 96-well plate (FALCON) at 2,000 cells/well. Using Dulbecco's modified Eagle's medium (DMEM) (Nacalai Tesque, Inc.) containing 10% fetal bovine serum (FBS) (Valeant Pharmaceuticals International, Inc.), 100 U/mL penicillin, and 100 μg/mL streptomycin (Meiji Seika Pharma Co., Ltd.), seeded cells were cultured for 24 hours at 37° C. under 5% CO2. Then, the medium was replaced with DMEM containing 10% FBS so that the concentration was 90 μL/well. After the medium replacement, a test solution was further added according to each test group. Specifically, in the control group, 10 μL of PBS containing 0.1% DMSO (Nacalai Tesque, Inc.) was added (n=6). In the temozolomide group, temozolomide (Tokyo Chemical Industry Co., Ltd.) was dissolved in PBS containing 0.1% DMSO to obtain a temozolomide solution. Then, 10 μL of the temozolomide solution was added so that the final concentration of temozolomide was 300 μM (n=6). In the astaxanthin and adonixanthin groups, astaxanthin or adonixanthin was dissolved in PBS containing 0.1% DMSO to obtain an astaxanthin or adonixanthin solution. Then, 10 μL each of the astaxanthin or adonixanthin solution was added so that the final concentration of astaxanthin or adonixanthin was 0.1, 1.0, 5, or 10 μM (n=6). At 72 hours and 96 hours after addition of each test solution, the viable cell count of GL261 and U251MG was measured using cell counting kit-8 (CCK-8) (DOJINDO LABORATORIES). Specifically, using a microplate reader (Varioscan Flash 2.4, Thermo Fisher Scientific K.K.) at the time of addition and 2 hours after addition of CCK-8, the absorbance was measured at 450 nm, and the viable cell count was measured using the absorbance at 650 nm as a reference. For example, in the case of 72-hour treatment, CCK-8 was added 70 hours after addition of the test solution, and the absorbance was measured. The absorbance was measured again 2 hours after addition of CCK-8. The value obtained by subtracting the absorbance immediately after addition of CCK-8 as the background from the absorbance 2 hours after addition of CCK-8 was used as data. In the same manner as in Test Example 1, effects of adonirubin or zeaxanthin on the cell proliferative capacity after 72 hours of a human- or mouse-derived glioma cell line were investigated. As adonirubin, the adonirubin obtained in Preparation Example 1 was used, and as zeaxanthin, Zeaxanthin (manufacturer code ASB-00026504, ChromaDex Corporation) was used. Specifically, the glioma cell lines were seeded in a 96-well plate at 2,000 cells/well. Using DMEM containing 10% FBS, 100 U/mL penicillin, and 100 μg/mL streptomycin, seeded cells were cultured for 24 hours at 37° C. under 5% CO2. Then, the medium was replaced with DMEM containing 10% FBS so that the concentration was 90 μL/well. After the medium replacement, a test solution was further added according to each test group. Specifically, in the control group, 10 μL of PBS containing 0.1% DMSO (Nacalai Tesque, Inc.) was added (n=6). In the temozolomide group, temozolomide was dissolved in PBS containing 0.1% DMSO to obtain a temozolomide solution. Then, 10 μL of the temozolomide solution was added so that the final concentration of temozolomide was 300 μM (n=6). In the adonirubin and zeaxanthin groups, adonirubin or zeaxanthin was dissolved in PBS containing 0.1% DMSO to obtain an adonirubin or zeaxanthin solution. Then, 10 μL each of the adonirubin or zeaxanthin solution was added so that the final concentration of adonirubin or zeaxanthin was 0.1, 1.0, 5, or 10 μM (n=6). At 72 hours after addition of each test solution, the cell proliferative capacity of GL261 and U251MG was evaluated using CCK-8 in the same manner as in Test Example 1.

[2] = Intracerebral distribution of astaxanthin or adonixanthin in cynomolgus monkey (HPLC of brain organs); type: in vivo; details: 50 mg/kg body weight once daily for 10 days into the stomach, FIG. 5
Protocol: Each of the astaxanthin and the adonixanthin obtained in Preparation Example 1 was weighed, followed by suspension by adding olive oil (product number 150-00276, manufactured by Wako Pure Chemical Industries, Ltd.) to prepare so that each concentration was 10 mg/mL, thus obtaining an astaxanthin dosing solution and an adonixanthin dosing solution. Each dosing solution was prepared at the time of use, and stored on ice and protected from light until administration.
As experimental animals, cynomolgus monkeys were used. […] The dose in each administration was calculated based on the latest body weight at each administration time point (body weight was measured using an electric balance (HP-40K or GP-40K, both of which were manufactured by A&D Company, Limited) on each of the day of initiation of acclimation, the day of end of acclimation, the day of initiation of administration, and before administration on the day 8 of administration). […]
Each of the concentration of adonixanthin in each organ collected from the adonixanthin-administering monkey (concentration relative to the weight of each organ) and the concentration of astaxanthin in each organ collected from the astaxanthin-administering monkey (concentration relative to the weight of each organ) was measured. […]

[3] = system: human-derived glioma cell line U251MG; experiment: Cell proliferative capacity / cell viability of human-derived glioma cell line U251MG (CCK-8); type: cell-based; details: for cell viability (proliferation) vs the control group: after 96 hours, 0.1, 1.0, 5 or 10 μM
Protocol: as §1

[4] = GL261, after 72 hours, all concentrations (0.1, 1.0, 5 or 10 μM)
[5] = after 72 hours, 0.1, 1.0, 5 or 10 μM
[6] = GL261, after 72 hours, 10 μM group

| Structure (SMILES) | average value of cell viability, concentration dependence ([1]; GL261, after 72 hours) | cell proliferative capacity vs the control group [1, 4] | cell viability (proliferation) vs the control group ([1]; FIG. 2) | proliferation inhibition compared with the astaxanthin group ([1]; GL261, after 96 hours, FIG. 2) | concentration in the brain compared with astaxanthin [2] | concentration in each organ of the brain (transfer into the brain and retention) ([2]; organs collected after blood sampling 4 hours after last administration) | cell proliferative capacity vs the control group [3, 5] | cell proliferative capacity vs the control group ([3]; after 72 hours, 1, 5, and 10 μM groups) | cell viability (proliferation) vs the control group ([3]; FIG. 1) | proliferation inhibition compared with the astaxanthin group ([3]; after 96 hours, FIG. 1) | proliferation inhibition compared with the zeaxanthin group ([1]; GL261, after 72 hours) | cell proliferative capacity vs the control group [1, 6] | proliferation inhibition compared with the adonirubin group ([3]; after 72 hours) |
| --- | --- | --- | --- | --- | --- | --- | --- | --- | --- | --- | --- | --- | --- |
| CC1=C(/C=C/C(C)=C/C=C/C(C)=C/C=C/C=C(C)/C=C/C=C(C)/C=C/C2=C(C)C(=O)C(O)CC2(C)C)C(C)(C)CC(O)C1 (stereo not drawn) [adonixanthin, 3,3′-dihydroxy-β,β-carotene-4-one] | tends to concentration-dependently decrease | significantly inhibited | significantly inhibited at any concentration | inhibited at a higher level | transferred into the brain at a higher concentration | transferred into the brain at a high concentration | tends to be concentration-dependently inhibited | significantly inhibited | significantly inhibited at any concentration | inhibited at a higher level |  |  |  |
| CC1=C(/C=C/C(C)=C/C=C/C(C)=C/C=C/C=C(C)/C=C/C=C(C)/C=C/C2=C(C)C(=O)C(O)CC2(C)C)C(C)(C)CCC1=O (stereo not drawn) [adonirubin, 3-hydroxy-β,β-carotene-4,4′-dione] |  | significantly inhibited at any concentration |  |  |  |  | tends to be inhibited at any concentration |  |  |  | inhibited at a higher level |  |  |
| CC1=C(/C=C/C(C)=C/C=C/C(C)=C/C=C/C=C(C)/C=C/C=C(C)/C=C/C2=C(C)C[C@@H](O)CC2(C)C)C(C)(C)C[C@H](O)C1 [zeaxanthin, β,β-carotene-3,3′-diol] |  | tends to be inhibited at any concentration |  |  |  |  | significantly inhibited at any concentration |  |  |  |  | significantly inhibited | inhibited at a higher level |
| CC1=C(/C=C/C(C)=C/C=C/C(C)=C/C=C/C=C(C)/C=C/C=C(C)/C=C/C2=C(C)C(=O)C(O)CC2(C)C)C(C)(C)CC(O)C1=O (stereo not drawn) [astaxanthin, 3,3′-dihydroxy-β,β-carotene-4,4′-dione] | tends to concentration-dependently decrease |  | significantly inhibited at any concentration |  |  |  | tends to be concentration-dependently inhibited |  | significantly inhibited at any concentration |  |  | significantly inhibited |  |
